Experimental data: patent publication US5550110A, “Endothelin Antagonists II” (Warner-Lambert Company, priority 1994, dated 1996)
Peptide text beside a SMILES is read from it.

Assays:
[1] = target: T1, rat recombinant ETB receptor (CHO cells) (Rattus norvegicus, UniProt P21451); experiment: Inhibition of ET-1 stimulated arachidonic acid release (AAR-B); type: cell-based; details: ET-1 0.3 nM
T1 construct: expressed in transfected cells; host or cells: CHO cells
T1 sequence (P21451 27-442): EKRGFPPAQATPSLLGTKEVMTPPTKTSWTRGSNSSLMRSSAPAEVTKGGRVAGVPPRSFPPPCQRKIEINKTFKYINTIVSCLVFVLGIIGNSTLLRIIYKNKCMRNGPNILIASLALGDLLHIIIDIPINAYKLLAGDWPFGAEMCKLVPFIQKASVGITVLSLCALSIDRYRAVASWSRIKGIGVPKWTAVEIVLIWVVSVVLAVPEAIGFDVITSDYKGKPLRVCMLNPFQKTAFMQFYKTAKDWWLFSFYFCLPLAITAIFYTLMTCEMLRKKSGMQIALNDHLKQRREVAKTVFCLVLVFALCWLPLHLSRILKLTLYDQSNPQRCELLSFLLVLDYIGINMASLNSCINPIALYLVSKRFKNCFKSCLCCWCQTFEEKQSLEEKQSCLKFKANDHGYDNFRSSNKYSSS
Description: In Vitro Inhibition of ET-1 Stimulated Arachidonic Acid Release in Cultured Rabbit Vascular Smooth Muscle Cells (AAR-A) or CHO Cells Expressing Rat Recombinant ETB Receptor (AAR-B) by Compounds of Formula I
Antagonist activity is measured by the ability of added compounds to reduce endothelin-stimulated arachidonic acid release in cultured vascular smooth muscle cells as arachidonic acid release (AAR). [^3 H] Arachidonic Acid Loading Media (LM) is DME/F12+0.5% fetal calf serum (FCS)×0.25 mCi/mL [^3 H] arachidonic acid (Amersham). Confluent monolayers of cultured rabbit renal artery vascular smooth muscle cells (AAR-A) or CHO cells expressing rat recombinant ETB receptor (AAR-B) were incubated in 0.5 mL of the LM over 18 hours, at 37° C., in 5% CO2. The LM was aspirated and the cells were washed once with the assay buffer (Hank's balanced salt solution [BSS]+10 mM HEPES+fatty acid-free BSA (1 mg/mL)), and incubated for 5 minutes with 1 mL of the prewarmed assay buffer. This solution was aspirated, followed by an additional 1 mL of prewarmed assay buffer, and further incubated for another 5 minutes. A final 5-minute incubation was carried out in a similar manner. The same procedure was repeated with the inclusion of 10 μL of the test compound (1 nM to 1 μM) and 10 μL ET-1 (0.3 nM) and the incubation was extended for 30 minutes. This solution was then collected, […] of scintillation cocktail was added, and the amount of [^3 H] arachidonic acid was determined in a liquid scintillation counter.

ET-1 pressor activity = experiment: Conscious rat duration of action study; type: in vivo; details: 10 mg/kg IV; for inhibition of ET-1 pressor activity: ganglionically blocked conscious rats, n=4
Text: Conscious Rat Duration of Action Study
Nonfasted rats (350-500 g) were used and anesthetized with Metofane (methoxyflurane) by inhalation. The rats were jugular cannulated (PE50) for IV administration of mecamylamine-HC1 (MEC), ET-1 and Ac-D-Bhg-Leu-Asp-Ile-N-MeIle-Trp (Example 19) Seq ID No: 20, and carotid cannulated (PE50) for arterial blood pressure measurements. Rats were attached to a swivel for freedom of movement, and food and water were available ad lib. Prior to the experiment, the animals were allowed to recover from anesthesia for 60 minutes. […] Ac-D-Bhg-Leu-Asp-Ile-N-MeIle-TrP (Example 19) Seq ID No: 20 was administered at a dose of 10 mg/kg IV.

Row | SMILES | IC50 [1] | duration of activity in vivo (ET-1 pressor activity) | inhibition of ET-1 pressor activity (ET-1 pressor activity; 5 minutes postdose) | inhibition of ET-1 pressor activity (ET-1 pressor activity; 30 minutes postdose)
1 | CC[C@H](C)[C@H](NC(=O)[C@H](CC(=O)O)NC(=O)[C@H](CC(C)C)NC(=O)[C@H](NC(C)=O)C1c2ccccc2CCc2ccccc21)C(=O)N[C@H](C(=O)N[C@@H](Cc1c[nH]c2ccccc12)C(=O)O)[C@@H](C)CC [Example 1, Ac-D-Bhg-Leu-Asp-Ile-Ile-Trp] (HELM PEPTIDE1{[ac].[O=C([C@H](N[*:1])C1c2ccccc2CCc2ccccc21)[*:2]].L.D.I.I.W}$$$$V2.0) | 20 nM |  |  | 
2 | CC[C@H](C)[C@H](NC(=O)[C@H](CC(=O)O)NC(=O)[C@H](CC(C)C)NC(=O)[C@H](NC(C)=O)C1c2ccccc2CCc2ccccc21)C(=O)N(C)[C@H](C(=O)N[C@@H](Cc1c[nH]c2ccccc12)C(=O)O)[C@@H](C)CC [Example 19, Ac-D-Bhg-Leu-Asp-Ile-N-MeIle-Trp] (HELM PEPTIDE1{[ac].[O=C([C@H](N[*:1])C1c2ccccc2CCc2ccccc21)[*:2]].L.D.I.[meI].W}$$$$V2.0) |  | prolonged activity | 81% | 58%
